Consider 25 substances from the OligoGym collection.

HELM strings list units from the 5' end as sugar, base in round brackets, then linkage (d deoxyribose, r ribose, m 2'-O-methyl, p phosphodiester). Strings are as the collection lists them; they lack the last nucleoside at the 3' end of the tested compound. [moe] = 2'-O-(2-methoxyethyl) (MOE); [sp] = phosphorothioate linkage; [m5C] = 5-methylcytosine

In the data set the target is C9ORF72. Kind of data set: mouse, dose not given. The note with it: ASO.
“RNA1{[moe](A)[sp].[moe](G)p.[moe](G)p.[moe]([m5C])p.[moe](T)p.[moe](G)p.d([m5C])[sp].d(G)[sp].d(G)[sp].d(T)[sp].d(T)[sp].d(G)[sp].d(T)[sp].d(T)[sp].d(T)[sp].d([m5C])[sp].[moe]([m5C])p.[moe]([m5C])[sp].[moe](T)}$$$$ (last 3' nucleoside missing)” returned a 3 h FOB score of 4 score 0-7. The substance “RNA1{[moe](A)[sp].[moe](G)p.[moe](G)p.[moe]([m5C])p.[moe](T)p.d(G)[sp].d([m5C])[sp].d(G)[sp].d(G)[sp].d(T)[sp].d(T)[sp].d(G)[sp].d(T)[sp].d(T)[sp].[moe](T)p.[moe]([m5C])p.[moe]([m5C])[sp].[moe]([m5C])}$$$$ (last 3' nucleoside missing)” had a 3 h FOB score of 6.25 score 0-7. To “RNA1{[moe]([m5C])[sp].[moe](G)p.[moe](G)p.[moe]([m5C])p.d([m5C])[sp].d([m5C])[sp].d([m5C])[sp].d(T)[sp].d(A)[sp].d(G)[sp].d([m5C])[sp].d(G)[sp].d([m5C])[sp].d(G)[sp].[moe]([m5C])p.[moe](G)p.[moe](A)p.[moe]([m5C])[sp].[moe](T)}$$$$ (last 3' nucleoside missing)” belongs 1.75 score 0-7; to “RNA1{[moe](G)[sp].[moe](G)p.[moe]([m5C])p.[moe](T)p.[moe](G)p.[moe]([m5C])p.d(G)[sp].d(G)[sp].d(T)[sp].d(T)[sp].d(G)[sp].d(T)[sp].d(T)[sp].d(T)[sp].d([m5C])[sp].[moe]([m5C])p.[moe]([m5C])[sp].[moe](T)}$$$$ (last 3' nucleoside missing)”, 5.25 score 0-7. The substance “RNA1{[moe]([m5C])[sp].[moe]([m5C])p.[moe]([m5C])p.[moe](T)p.d(A)[sp].d(G)[sp].d([m5C])[sp].d(G)[sp].d([m5C])[sp].d(G)[sp].d([m5C])[sp].d(G)[sp].d(A)[sp].d([m5C])[sp].[moe](T)p.[moe]([m5C])p.[moe]([m5C])p.[moe](T)[sp].[moe](G)}$$$$ (last 3' nucleoside missing)” returned a 3 h FOB score of 1.75 score 0-7. To “RNA1{[moe](G)[sp].[moe](G)p.[moe](T)p.[moe](T)p.[moe](A)p.[moe](A)p.[moe](T)p.d([m5C])[sp].d(T)[sp].d(T)[sp].d(T)[sp].d(A)[sp].d(T)[sp].d([m5C])[sp].d(A)[sp].d(G)[sp].d(G)[sp].[moe](T)[sp].[moe]([m5C])}$$$$ (last 3' nucleoside missing)” belongs 5.75 score 0-7. Next, “RNA1{[moe]([m5C])[sp].[moe](T)p.[moe](G)p.[moe]([m5C])p.d(G)[sp].d(A)[sp].d(T)[sp].d([m5C])[sp].d([m5C])[sp].d([m5C])[sp].d([m5C])[sp].d(A)[sp].d(T)[sp].d(T)[sp].[moe]([m5C])p.[moe]([m5C])p.[moe](A)p.[moe](G)[sp].[moe](T)}$$$$ (last 3' nucleoside missing)”: 1.75 score 0-7. Consider “RNA1{[moe]([m5C])[sp].[moe](A)p.[moe](G)p.[moe](G)p.[moe]([m5C])p.[moe](T)p.d(G)[sp].d([m5C])[sp].d(G)[sp].d(G)[sp].d(T)[sp].d(T)[sp].d(G)[sp].d(T)[sp].d(T)[sp].[moe](T)p.[moe]([m5C])[sp].[moe]([m5C])}$$$$ (last 3' nucleoside missing)”, for which the 3 h FOB score was 6 score 0-7.

“RNA1{[moe]([m5C])[sp].[moe](G)p.[moe](G)p.[moe]([m5C])p.d([m5C])[sp].d([m5C])[sp].d([m5C])[sp].d(T)[sp].d(A)[sp].d(G)[sp].d([m5C])[sp].d(G)[sp].d([m5C])[sp].[moe](G)p.[moe]([m5C])p.[moe](G)p.[moe](A)[sp].[moe]([m5C])}$$$$ (last 3' nucleoside missing)” showed a 3 h FOB score of 5.25 score 0-7. Next, “RNA1{[moe]([m5C])[sp].[moe](A)p.[moe](G)p.[moe](G)[sp].d([m5C])[sp].d(T)[sp].d(G)[sp].d([m5C])[sp].d(G)[sp].d(G)[sp].d(T)[sp].d(T)[sp].[moe](G)p.[moe](T)p.[moe](T)p.[moe](T)[sp].[moe]([m5C])}$$$$ (last 3' nucleoside missing)”: 3.5 score 0-7. Substance “RNA1{[moe](T)[sp].[moe](A)[sp].[moe]([m5C])[sp].[moe](A)[sp].[moe](G)[sp].d(G)[sp].d([m5C])[sp].d(T)[sp].d(G)[sp].d([m5C])[sp].d(G)[sp].d(G)[sp].d(T)[sp].d(T)[sp].d(G)[sp].[moe](T)[sp].[moe](T)[sp].[moe](T)[sp].[moe]([m5C])}$$$$ (last 3' nucleoside missing)” registered a 3 h FOB score of 7 score 0-7. Consider “RNA1{[moe](T)[sp].[moe](G)p.[moe](G)p.[moe](T)p.[moe](T)p.[moe](A)p.[moe](A)p.d(T)[sp].d([m5C])[sp].d(T)[sp].d(T)[sp].d(T)[sp].d(A)[sp].d(T)[sp].d([m5C])[sp].d(A)[sp].d(G)[sp].[moe](G)[sp].[moe](T)}$$$$ (last 3' nucleoside missing)”, for which the 3 h FOB score is 3.75 score 0-7. “RNA1{[moe]([m5C])[sp].[moe]([m5C])p.[moe]([m5C])p.[moe]([m5C])[sp].d(T)[sp].d(A)[sp].d(G)[sp].d([m5C])[sp].d(G)[sp].d([m5C])[sp].d(G)[sp].d([m5C])[sp].[moe](G)p.[moe](A)p.[moe]([m5C])p.[moe](T)[sp].[moe]([m5C])}$$$$ (last 3' nucleoside missing)” had a 3 h FOB score of 1 score 0-7.

In turn, “RNA1{[moe](T)[sp].[moe]([m5C])p.[moe](T)p.[moe](G)p.[moe](T)p.[moe]([m5C])p.[moe](T)p.d(T)[sp].d(T)[sp].d(G)[sp].d(G)[sp].d(A)[sp].d(G)[sp].d([m5C])[sp].d([m5C])[sp].d([m5C])[sp].d(A)[sp].[moe](A)[sp].[moe](A)}$$$$ (last 3' nucleoside missing)” yielded a 3 h FOB score of 2 score 0-7. Next, “RNA1{[moe](G)[sp].[moe]([m5C])p.[moe]([m5C])p.[moe]([m5C])[sp].d([m5C])[sp].d(T)[sp].d(A)[sp].d(G)[sp].d([m5C])[sp].d(G)[sp].d([m5C])[sp].d(G)[sp].[moe]([m5C])p.[moe](G)p.[moe](A)p.[moe]([m5C])[sp].[moe](T)}$$$$ (last 3' nucleoside missing)”: 1.5 score 0-7; “RNA1{[moe]([m5C])[sp].[moe]([m5C])p.[moe]([m5C])p.[moe](T)[sp].d(A)[sp].d(G)[sp].d([m5C])[sp].d(G)[sp].d([m5C])[sp].d(G)[sp].d([m5C])[sp].d(G)[sp].[moe](A)p.[moe]([m5C])p.[moe](T)p.[moe]([m5C])[sp].[moe]([m5C])}$$$$ (last 3' nucleoside missing)”: 1 score 0-7. To “RNA1{[moe](G)[sp].[moe]([m5C])p.[moe]([m5C])p.[moe](T)p.[moe](T)p.[moe](A)[sp].d([m5C])[sp].d(T)[sp].d([m5C])[sp].d(T)[sp].d(A)[sp].d(G)[sp].d(G)[sp].d(A)[sp].[moe]([m5C])p.[moe]([m5C])[sp].[moe](A)}$$$$ (last 3' nucleoside missing)” belongs 1 score 0-7. “RNA1{[moe]([m5C])[sp].[moe](G)p.[moe](G)p.[moe]([m5C])[sp].d([m5C])[sp].d([m5C])[sp].d([m5C])[sp].d(T)[sp].d(A)[sp].d(G)[sp].d([m5C])[sp].d(G)[sp].[moe]([m5C])p.[moe](G)p.[moe]([m5C])p.[moe](G)[sp].[moe](A)}$$$$ (last 3' nucleoside missing)”: the 3 h FOB score worked out at 7 score 0-7. Next, “RNA1{[moe]([m5C])[sp].[moe](T)p.[moe](G)p.[moe](G)p.d(T)[sp].d(T)[sp].d(A)[sp].d(A)[sp].d(T)[sp].d([m5C])[sp].d(T)[sp].d(T)[sp].d(T)[sp].d(A)[sp].[moe](T)p.[moe]([m5C])p.[moe](A)p.[moe](G)[sp].[moe](G)}$$$$ (last 3' nucleoside missing)”: 0 score 0-7; “RNA1{[moe](T)[sp].[moe]([m5C])p.[moe](T)p.[moe](G)p.[moe](T)p.[moe]([m5C])p.d(T)[sp].d(T)[sp].d(T)[sp].d(G)[sp].d(G)[sp].d(A)[sp].d(G)[sp].d([m5C])[sp].d([m5C])[sp].d([m5C])[sp].[moe](A)p.[moe](A)[sp].[moe](A)}$$$$ (last 3' nucleoside missing)”: 4.25 score 0-7. With “RNA1{[moe](G)[sp].[moe]([m5C])p.[moe]([m5C])p.[moe](T)[sp].d(T)[sp].d(A)[sp].d([m5C])[sp].d(T)[sp].d([m5C])[sp].d(T)[sp].d(A)[sp].d(G)[sp].[moe](G)p.[moe](A)p.[moe]([m5C])p.[moe]([m5C])[sp].[moe](A)}$$$$ (last 3' nucleoside missing)”, the 3 h FOB score turned out to be 0.25 score 0-7. “RNA1{[moe](G)[sp].[moe]([m5C])p.[moe](T)p.[moe](G)[sp].d([m5C])[sp].d(G)[sp].d(G)[sp].d(T)[sp].d(T)[sp].d(G)[sp].d(T)[sp].d(T)[sp].[moe](T)p.[moe]([m5C])p.[moe]([m5C])p.[moe]([m5C])[sp].[moe](T)}$$$$ (last 3' nucleoside missing)”: the 3 h FOB score was found to be 5 score 0-7. To “RNA1{[moe]([m5C])[sp].[moe]([m5C])p.[moe](G)p.[moe](G)p.d([m5C])[sp].d([m5C])[sp].d([m5C])[sp].d([m5C])[sp].d(T)[sp].d(A)[sp].d(G)[sp].d([m5C])[sp].d(G)[sp].d([m5C])[sp].[moe](G)p.[moe]([m5C])p.[moe](G)p.[moe](A)[sp].[moe]([m5C])}$$$$ (last 3' nucleoside missing)” belongs 4.25 score 0-7. To “RNA1{[moe]([m5C])[sp].[moe]([m5C])p.[moe](G)p.d(G)[sp].d([m5C])[sp].d([m5C])[sp].d([m5C])[sp].d([m5C])[sp].d(T)[sp].d(A)[sp].d(G)[sp].d([m5C])[sp].d(G)[sp].[moe]([m5C])p.[moe](G)p.[moe]([m5C])p.[moe](G)p.[moe](A)[sp].[moe]([m5C])}$$$$ (last 3' nucleoside missing)” belongs 3.25 score 0-7; to “RNA1{[moe](G)[sp].[moe](G)[sp].[moe](G)[sp].[moe](A)[sp].[moe]([m5C])[sp].d(A)[sp].d([m5C])[sp].d(T)[sp].d(A)[sp].d([m5C])[sp].d(A)[sp].d(A)[sp].d(G)[sp].d(G)[sp].d(T)[sp].[moe](A)[sp].[moe](G)[sp].[moe](T)[sp].[moe](A)}$$$$ (last 3' nucleoside missing)”, 5.67 score 0-7.
